Patent US5834518A, “Use of N,N'-dibenzylethylenediamine-N,N'-diacetic acid derivatives as depigmenting agents” (L'Oreal, priority 1996, dated 1998)

Columns and labels:
[1] = test system: Human melanocytes; assay: cytotoxicity to cultured human melanocytes; format: cell-based; details: 0.1 mM, 0.25 mM, 0.5 mM and 0.75 mM in human melanocyte culture
[2] = target: T1, human melanocyte tyrosinase (Homo sapiens, UniProt P14679); assay: dopa-oxidase activity of human melanocyte tyrosinase after culturing melanocytes with compound; format: cell-based; details: human melanocytes cultured three days, 5 mM L-dopa, absorbance 475 nm, read-out: Percentage of inhibition
T1 construct: Human melanocytes are prepared and cultured; endogenous in cells; host or cells: cultured human melanocytes
T1 sequence (P14679 19-529): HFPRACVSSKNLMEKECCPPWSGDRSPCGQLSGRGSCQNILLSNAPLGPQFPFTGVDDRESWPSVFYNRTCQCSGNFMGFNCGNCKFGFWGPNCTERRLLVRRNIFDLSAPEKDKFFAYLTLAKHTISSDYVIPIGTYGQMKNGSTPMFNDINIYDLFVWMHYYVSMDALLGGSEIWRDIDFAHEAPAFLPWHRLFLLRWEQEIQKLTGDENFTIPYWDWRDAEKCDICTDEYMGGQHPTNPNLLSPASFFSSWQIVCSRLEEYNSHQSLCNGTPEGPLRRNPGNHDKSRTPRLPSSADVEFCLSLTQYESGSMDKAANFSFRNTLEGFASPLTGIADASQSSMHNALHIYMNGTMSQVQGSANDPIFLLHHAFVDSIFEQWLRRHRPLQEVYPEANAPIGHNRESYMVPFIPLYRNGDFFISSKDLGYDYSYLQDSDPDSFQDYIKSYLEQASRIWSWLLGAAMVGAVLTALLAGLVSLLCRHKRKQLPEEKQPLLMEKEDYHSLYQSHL
Experimental: The effectiveness of the compound of formula (1) as a tyrosinase inhibitor is determined by evaluating its effect on the dopa-oxidase activity of human melanocyte tyrosinase. The compound tested is N,N'-di(3-hydroxybenzyl)ethylenediamine-N,N'-diacetic acid of formula (II): [drawing 5]
Human melanocytes are prepared and cultured and then introduced into media containing different, non-cytotoxic concentrations of the compound of formula (II) (0.1 mM, 0.25 mM, 0.5 mM and 0.75 mM). After three days, the melanocytes are "trypsinized" in a mixture of trypsin/0.05% EDTA/0.02% in a phosphate buffer (50 mM at pH 6.8), washed three times in the phosphate buffer containing 1% (w/v) Triton x-100 and subjected to ultrasound. After centrifugation, samples are taken and mixed with 5 mM L-dopa in phosphate buffer. The tyrosinase activity is evaluated by spectrophotometry by measuring the increase in the absorbance at 475 nm because of the formation of dopachrome from 5 mM dope. The absorbance is read on a microplate reader at 25° C. for 60 min.
The activity of the cellular tyrosinase is measured relative to a standard range prepared with commercial tyrosinase.

O=C(O)CN(CCN(CC(=O)O)Cc1cccc(O)c1)Cc1cccc(O)c1 [compound of formula (II), N,N'-di(3-hydroxybenzyl)ethylenediamine-N,N'-diacetic acid] was tested, and the “cytotoxicity of the concentrations used” value [1] was “non-cytotoxic”, the inhibition at 100 µM ([2]; 0.1 mM compound) was 19% and the inhibition at 250 µM ([2]; 0.25 mM compound) was 30%. It also gave an inhibition at 500 µM ([2]; 0.5 mM compound) of 33% and an inhibition at 750 µM ([2]; 0.75 mM compound) of 42%.
